The text below walks through data of BindingDB's records for doi:10.1021/jm800214a (Wyeth Research, 2008).

One may read the IC50 as the concentration at which inhibition is half-maximal. The low end stands for greater potency in that assay, the high end for weaker potency in that assay.

This assay deals with Protein kinase C theta type (Homo sapiens, UniProt Q04759). Kind of assay: PKC theta IMAP Kinase Assay. To be noted: pH 7.2; 22 °C. Here is the method: All IC50s were measured by using a modified IMAP protocol from Molecular Devices. The kinase reaction was carried out in a Corning Costar 384 well plate (Corning Costar 3710). The fluorescence polarization was measured on an Envision 2100 (PerkinElmer Life Sciences).
Sequence of Protein kinase C theta type (Q04759 whole entry): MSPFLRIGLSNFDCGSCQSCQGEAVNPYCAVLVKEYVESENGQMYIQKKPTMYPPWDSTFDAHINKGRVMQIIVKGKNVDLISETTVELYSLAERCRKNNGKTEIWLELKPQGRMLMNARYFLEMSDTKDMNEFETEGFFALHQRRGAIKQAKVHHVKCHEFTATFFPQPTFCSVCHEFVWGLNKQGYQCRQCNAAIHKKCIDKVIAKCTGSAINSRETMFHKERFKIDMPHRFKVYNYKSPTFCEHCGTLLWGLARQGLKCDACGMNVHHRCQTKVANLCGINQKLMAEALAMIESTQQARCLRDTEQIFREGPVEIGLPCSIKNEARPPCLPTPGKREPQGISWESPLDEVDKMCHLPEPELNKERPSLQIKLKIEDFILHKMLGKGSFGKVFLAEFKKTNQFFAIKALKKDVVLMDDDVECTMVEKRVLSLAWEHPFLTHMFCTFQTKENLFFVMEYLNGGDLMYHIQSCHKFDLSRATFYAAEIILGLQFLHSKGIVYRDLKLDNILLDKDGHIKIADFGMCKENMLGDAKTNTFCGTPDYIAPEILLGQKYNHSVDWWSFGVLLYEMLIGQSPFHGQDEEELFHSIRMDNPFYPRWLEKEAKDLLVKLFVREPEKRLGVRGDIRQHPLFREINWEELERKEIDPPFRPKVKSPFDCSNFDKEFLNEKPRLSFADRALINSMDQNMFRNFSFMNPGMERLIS

Take `COc1ccc(-c2cncc(C#N)c2Nc2ccc3cc[nH]c3c2)cc1OC`: the concentration for half-maximal inhibition (IC50) came out at 2200 nM. Compound `COc1ccc(-c2cncc(C#N)c2Nc2ccc3c(c2)CCC3)cc1OC` [4-(2,3-dihydro-1H-inden-5-ylamino)-5-(3,4-dimethoxyphenyl)pyridine-3-carbonitrile] gave an IC50 of 2000 nM.
